pIC50: −log10 of the molar value.
Target: T1, choline kinase (CK) [EC 2.7.1.32] (Saccharomyces cerevisiae, UniProt P20485)
T1 sequence (P20485 2-582): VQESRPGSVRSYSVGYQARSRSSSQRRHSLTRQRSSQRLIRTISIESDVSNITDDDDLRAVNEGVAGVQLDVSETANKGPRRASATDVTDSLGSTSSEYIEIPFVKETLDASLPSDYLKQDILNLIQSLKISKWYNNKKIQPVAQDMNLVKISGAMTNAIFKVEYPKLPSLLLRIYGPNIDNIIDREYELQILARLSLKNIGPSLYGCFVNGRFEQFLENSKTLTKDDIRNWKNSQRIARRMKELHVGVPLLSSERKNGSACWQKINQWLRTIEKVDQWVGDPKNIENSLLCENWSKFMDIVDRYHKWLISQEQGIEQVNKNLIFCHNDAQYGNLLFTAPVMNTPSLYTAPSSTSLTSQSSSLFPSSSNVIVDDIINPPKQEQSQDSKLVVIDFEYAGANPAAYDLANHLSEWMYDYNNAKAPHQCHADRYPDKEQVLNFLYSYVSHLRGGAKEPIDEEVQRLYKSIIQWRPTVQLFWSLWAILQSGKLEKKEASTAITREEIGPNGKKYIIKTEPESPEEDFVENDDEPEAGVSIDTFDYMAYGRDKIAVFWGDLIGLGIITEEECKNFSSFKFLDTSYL
Assay: 1H NMR
Assay type: biochemical

SMILES: CN1CC[C@H](c2c(O)cc(O)c3c(=O)cc(-c4ccccc4Cl)oc23)[C@H](O)C1 [flavopiridol]
- pIC50: > 6.30
